Test results reported in patent US5705487A, “Antithrombotic agents” (priority 1995, dated 1998).
Where a name gives a salt, the structure may show the parent alone.

Key:
Assay type in all cases: biochemical
Human Thrombin = Human Thrombin (Homo sapiens, UniProt P00734); assay: Inhibition of the amidase activity of thrombin (Kass); settings: chromogenic substrate N-benzoyl-Phe-Val-Arg-p-nitroanilide; mean over range of concentrations
Human Plasma [1] = assay: Human plasma anticoagulation, thrombin time (TT); settings: concentration required to double the clotting time
Procedure: (§1) Dog plasma and rat plasma is obtained from conscious mixed-breed hounds (either sex, Hazelton-LRE, Kalamazoo, Mich., U.S.A.) or from anesthetized male Sprague-Dawley rats (Harlan Sprague-Dawley, Inc., Indianapolis, Ind., U.S.A.) by venipuncture into 3.8 percent citrate. Fibrinogen is prepared from in-date ACD human blood as the fraction I-2 according to previous procedures and specifications. […] Human fibrinogen is also purchased as 98 percent pure/plasmin free from American Diagnostica, Greenwich, Conn. Coagulation reagents ACTIN, Thromboplastin, and Human plasma are from Baxter Healthcare Corp., Dade Division, Miami, Fla. Bovine thrombin from Parke-Davis ([…], Mich.) is used for coagulation assays in plasma.
(§2) Coagulation assay procedures are as previously described. […] A CoAScreener coagulation instrument (American LABor, Inc.) is used for all coagulation assay measurements. The prothrombin time (PT) is measured by adding 0.05 mL saline and 0.05 mL Thromboplastin-C reagent to 0.05 mL test plasma. The activated partial thromboplastin time (APTT) is measured by incubation of 0.05 mL test plasma with 0.05 mL Actin reagent for 120 seconds followed by 0.05 mL CaCl2 (0.02M). The thrombin time (TT) is measured by adding 0.05 mL saline and 0.05 mL thrombin (10 NIH units/mL) to 0.05 mL test plasma. The compounds of Formula I are added to human or animal plasma over a wide range of concentrations to determine prolongation effects on the APTT, PT, and TT assays. Linear extrapolations are performed to estimate the concentrations required to double the clotting time for each assay.

Bovine trypsin = target: T1, Bovine trypsin (Bos taurus, UniProt P00760); assay: Kass, trypsin chromogenic substrate assay; settings: substrate N-Benzoyl-Phe-Val-Arg-p-nitroanilide
T1 construct: Bovine trypsin is purchased from Worthington Biochemicals; purchased Worthington Biochemicals, Freehold, N.J
T1 sequence (P00760 24-246): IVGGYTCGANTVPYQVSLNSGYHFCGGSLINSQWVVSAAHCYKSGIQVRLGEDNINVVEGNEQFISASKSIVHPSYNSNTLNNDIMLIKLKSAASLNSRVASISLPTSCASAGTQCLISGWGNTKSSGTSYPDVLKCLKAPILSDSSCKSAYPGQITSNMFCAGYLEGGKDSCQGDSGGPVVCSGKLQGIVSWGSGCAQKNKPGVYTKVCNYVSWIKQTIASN

Human Plasma [2] = assay: Human plasma anticoagulation, prothrombin time (PT); settings: concentration required to double the clotting time
Procedure: as §1, §2

Human Plasma [3] = assay: Human plasma anticoagulation, activated partial thromboplastin time (APTT); settings: concentration required to double the clotting time
Procedure: as §1, §2

Row | Kass × 10^6 (L/mole) Human Thrombin (Human Thrombin) | Kass × 10^6 (L/mole) Trypsin (Bovine trypsin) | Molecule | Human Plasma Anticoagulation 2x Clotting time TT (Human Plasma [1]) [ng/mL] | Human Plasma Anticoagulation 2x Clotting time PT (Human Plasma [2]) | Human Plasma Anticoagulation 2x Clotting time APTT (Human Plasma [3])
1 | 0.45 × 10^6 L/mole |  | Cl.Nc1ccc(CCNC(=O)[C@@H]2CCCN2C(=O)[C@@H](CC2CCCCC2)NCC(=O)O)cn1 [Example 75, HO2 CCH2 -D-Cha-Pro-5-NHCH2 CH2 -2-aminopyridine.HCl] |  |  | 
2 |  |  | CCS(=O)(=O)N[C@@H](C(=O)N1[C@H](C(=O)NCc2ccc(C(=N)N)cc2)C[C@@H]2CCCC[C@@H]21)c1ccccc1 (relative stereo) [Example 44, EtSO2 -Phg-cis-Ohi-p-NHCH2 C6 H4 C(NH)NH2.HCl] | 4. |  | 
3 | 2.0 × 10^6 L/mole | 0.24 × 10^6 L/mole | NCC1CCC(CNC(=O)[C@@H]2CCCN2C(=O)[C@@H](CC2CCCCC2)NCC(=O)O)CC1 (stereo partly drawn) [Example 79, HO2 CCH2 -D-Cha-Pro-4-NHCH2 C6 H10 CH2 NH2.HCl] | 140 | 2,400 ng/mL | 1,700 ng/mL
4 | 120 × 10^6 L/mole | 4.6 × 10^6 L/mole | N=C(N)c1ccc(CNC(=O)[C@@H]2CCCN2C(=O)[C@@H](CC2CCCCC2)NCC(=O)O)nc1 [Example 66, HO2 CCH2 -D-Cha-Pro-2-NHCH2 -5-amidinopyridine.HCl] | 7.9 | 270 ng/mL | 180 ng/mL
5 | 2,300 × 10^6 L/mole | 280 × 10^6 L/mole | Cl.N=C(N)c1cc(F)c(CNC(=O)[C@@H]2CCCN2C(=O)[C@@H](CC2CCCCC2)NCC(=O)O)c(F)c1 [Example 72, HO2 CCH2 -D-Cha-Pro-4-NHCH2 -3,5-F2 -benzamidine.HCl] | 1 | 160 ng/mL | 160 ng/mL
6 | 29 × 10^6 L/mole |  | Cl.Nc1ccc(CNC(=O)[C@@H]2CCCN2C(=O)[C@@H](CC2CCCCC2)NCC(=O)O)cn1 [Example 74, HO2 CCH2 -D-Cha-Pro-5-NHCH2 -2-aminopyridine.HCl] | 20 | 350 ng/mL | 420 ng/mL
7 |  |  | HOOCCH2 -D-Phe-Pro-p-NHCH2 C6 H4 C(NH)NH2.HCl [Example 46] | 2. |  | 
8 | 265 × 10^6 L/mole | 30.8 × 10^6 L/mole | N=C(N)c1ccc(CNC(=O)[C@@H]2CCCN2C(=O)[C@@H](CC2CCCCC2)NCCCC(=O)O)cc1 [Example 85, HOOCCH2 CH2 CH2 -D-Cha-Pro-p-NHCH2 C6 H4 C(NH)NH2.HCl] | 4.9 | 197 ng/mL | 100 ng/mL
9 | 2.4 × 10^6 L/mole | 0.03 × 10^6 L/mole | CCS(=O)(=O)N[C@H](CC1CCCCC1)C(=O)N1CCC[C@H]1C(=O)NCc1ccnc(N)c1.Cl [Example 83, EtSO2 -D-Cha-Pro-4-NHCH2 -2-aminopyridine.HCl] | 91 | 1,300 ng/mL | 1,000 ng/mL
10 |  |  | EtSO2 -D-Phe-Pro-p-NHCH2 -C6 H4 C(=NH)NH2.HCl [Example 23] | 7 |  | 
11 |  |  | 1-Piq-Pro-p-NHCH2 C6 H4 C(NH)NH2.2HCl [Example 18] | 7 |  | 
12 | 28 × 10^6 L/mole |  | Cl.Nc1cc(CNC(=O)[C@@H]2CCCN2C(=O)[C@@H](CC2CCCCC2)NCC(=O)O)ccn1 [Example 73, HO2 CCH2 -D-Cha-Pro-4-NHCH2 -2-aminopyridine.HCl] | 21 | 330 ng/mL | 340 ng/mL
13 | 5.0 × 10^6 L/mole |  | CCS(=O)(=O)N[C@H](CC1CCCCC1)C(=O)N1CCC[C@H]1C(=O)NCc1ccc(N)cc1F.Cl [Example 82, EtSO2 -D-Cha-Pro-4-NHCH2 -3-F-C6 H3 NH2.HCl] | 130 | 3,000 ng/mL | 3,800 ng/mL
14 | 11 × 10^6 L/mole |  | N=C(N)C1CCC(CNC(=O)[C@@H]2CCCN2C(=O)[C@@H](CC2CCCCC2)NCC(=O)O)NC1 (stereo partly drawn) [Example 67, HO2 CCH2 -D-Cha-Pro-2-NHCH2 -5-amidinopiperidine.HCl] | 34. | 1,300 ng/mL | 1,800 ng/mL
15 | 7.6 × 10^6 L/mole |  | Nc1ccc(CNC(=O)[C@@H]2CCCN2C(=O)[C@@H](CC2CCCCC2)NCC(=O)O)cc1 [Example 62, HO2 CCH2 -D-Cha-Pro-4-NHCH2 C6 H4 NH2.HCl] | 54 |  | 
16 | 0.31 × 10^6 L/mole |  | Nc1ccc(CCNC(=O)[C@@H]2CCCN2C(=O)[C@@H](CC2CCCCC2)NCC(=O)O)cc1 [Example 63, HO2 CCH2 -D-Cha-Pro-4-NHCH2 CH2 C6 H4 NH2.HCl] | 680 |  | 
17 | 4,500 × 10^6 L/mole |  | Cl.N=C(N)c1cc(CNC(=O)[C@@H]2CCCN2C(=O)[C@@H](CC2CCCCC2)NCC(=O)O)cs1 [Example 65, HO2 CCH2 -D-Cha-Pro-4-NHCH2 -2-amidinothiophene.HCl] | 1 |  | 48 ng/mL
18 |  |  | N=C(N)c1ccc(CNC(=O)[C@@H]2CCCN2C(=O)[C@H](NCC(=O)O)C2CCCCC2)cc1 [Example 86, HOOCCH2 -D-Chg-Pro-p-NHCH2 C6 H4 C(NH)NH2.HCl] | 4 |  | 

Row | Molecule | Kass × 10^6 (L/mole) Human Thrombin (Human Thrombin) | Kass × 10^6 (L/mole) Trypsin (Bovine trypsin) | Human Plasma Anticoagulation 2x Clotting time TT (Human Plasma [1]) [ng/mL] | Human Plasma Anticoagulation 2x Clotting time PT (Human Plasma [2]) | Human Plasma Anticoagulation 2x Clotting time APTT (Human Plasma [3])
19 | CCS(=O)(=O)N[C@H](CC1CCCCC1)C(=O)N1CCC[C@H]1C(=O)NCc1ccc(C(=N)N)cc1.Cl [Example 80, EtSO2 -D-Cha-Pro-4-NHCH2 C6 H4 C(NH)NH2.HCl] |  | 90. × 10^6 L/mole | 4 | 130 ng/mL | 40 ng/mL
20 | Nc1ccc(CNC(=O)[C@@H]2CCCN2C(=O)[C@@H](CC2CCCCC2)NCC(=O)O)cc1F [Example 77, HO2 CCH2 -D-Cha-Pro-4-NHCH2 -2-F-aniline.HCl] | 11 × 10^6 L/mole |  | 53 | 890 ng/mL | 1,600 ng/mL
21 | Cl.N=C(N)C1=CNC(CNC(=O)[C@@H]2CCCN2C(=O)[C@@H](CC2CCCCC2)NCC(=O)O)CC1 (stereo partly drawn) [Example 68, HO2 CCH2 -D-Cha-Pro-2-NHCH2 -5-amidino-5,6-dehydro-piperidine.HCl] | 600 × 10^6 L/mole |  | 4. | 190 ng/mL | 49 ng/mL
